# ChEMBL document CHEMBL4145445, “Design, synthesis and biological assessment of new thiazolylhydrazine derivatives as selective and reversible hMAO-A inhibitors” (Eur J Med Chem, 2018)
# Assays:
# [1] = target: T1, Amine oxidase [flavin-containing] A (Homo sapiens, UniProt P21397); assay: Inhibition of human MAO-A using tyramine hydrochloride as substrate after 30 mins by Amplex Red reagent based horseradish peroxidase enzyme-coupled fluorescence assay
# T1 sequence (P21397 whole entry): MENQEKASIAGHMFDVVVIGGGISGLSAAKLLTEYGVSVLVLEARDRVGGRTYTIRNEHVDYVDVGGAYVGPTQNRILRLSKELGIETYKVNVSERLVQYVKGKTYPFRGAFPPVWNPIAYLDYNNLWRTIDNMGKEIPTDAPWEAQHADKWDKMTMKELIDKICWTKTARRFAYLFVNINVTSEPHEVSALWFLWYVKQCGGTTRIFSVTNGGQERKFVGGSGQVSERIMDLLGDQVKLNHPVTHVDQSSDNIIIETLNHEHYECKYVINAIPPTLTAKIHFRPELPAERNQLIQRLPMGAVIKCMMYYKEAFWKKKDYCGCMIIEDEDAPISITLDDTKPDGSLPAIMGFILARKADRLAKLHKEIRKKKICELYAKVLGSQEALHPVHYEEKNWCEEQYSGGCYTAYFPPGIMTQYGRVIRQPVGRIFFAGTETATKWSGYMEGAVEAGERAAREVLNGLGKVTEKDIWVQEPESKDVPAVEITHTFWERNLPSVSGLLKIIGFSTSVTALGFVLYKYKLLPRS
# [2] = target: T2, Amine oxidase [flavin-containing] B (Homo sapiens, UniProt P27338); assay: Inhibition of human MAO-B using tyramine hydrochloride as substrate after 30 mins by Amplex Red reagent based horseradish peroxidase enzyme-coupled fluorescence assay
# T2 sequence (P27338 whole entry): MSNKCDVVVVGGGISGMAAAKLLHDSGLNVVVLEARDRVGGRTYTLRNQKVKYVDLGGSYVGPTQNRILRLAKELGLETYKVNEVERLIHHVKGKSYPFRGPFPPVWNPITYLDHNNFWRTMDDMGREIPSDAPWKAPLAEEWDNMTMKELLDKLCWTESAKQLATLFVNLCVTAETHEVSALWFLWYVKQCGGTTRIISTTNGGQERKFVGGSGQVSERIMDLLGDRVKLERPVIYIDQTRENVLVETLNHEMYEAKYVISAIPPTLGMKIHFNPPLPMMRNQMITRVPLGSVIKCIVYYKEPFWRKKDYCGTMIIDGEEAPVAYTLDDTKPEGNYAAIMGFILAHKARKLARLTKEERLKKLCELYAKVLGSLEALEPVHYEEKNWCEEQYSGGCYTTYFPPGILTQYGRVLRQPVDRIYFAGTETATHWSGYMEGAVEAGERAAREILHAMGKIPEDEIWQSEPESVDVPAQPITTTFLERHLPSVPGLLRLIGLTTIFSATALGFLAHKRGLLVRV
# [3] = target: T1, Amine oxidase [flavin-containing] A; assay: Inhibition of human MAO-A at 10^-4 to 10^-3 M using tyramine hydrochloride as substrate after 30 mins by Amplex Red reagent based horseradish peroxidase enzyme-coupled fluorescence assay relative to control; conditions: 0.5 h
# Homo sapiens = species on record: Homo sapiens; assay: Selectivity index, ratio of IC50 for human MAO-B to IC50 for human MAO-A
# [4] = target: T2, Amine oxidase [flavin-containing] B; assay: Inhibition of human MAO-B at 10^-4 to 10^-3 M using tyramine hydrochloride as substrate after 30 mins by Amplex Red reagent based horseradish peroxidase enzyme-coupled fluorescence assay relative to control; conditions: 0.5 h
IC50 [1] [µM],IC50 [2] [µM],inhibition (INH) [3] [%],Ratio IC50 (Homo sapiens),inhibition (INH) [4] [%],Compound
66.3,53.1,> 50,0.8,> 50,N#Cc1ccc(-c2csc(N/N=C/c3ccc(N4CCCC4)cc3)n2)cc1
10.6,558,> 50,52.8,> 50,Clc1ccc(-c2csc(N/N=C/c3ccc(N4CCOCC4)cc3)n2)cc1
11.4,> 1000,> 50,> 87.8,,C(=N\Nc1nc(-c2ccccc2)cs1)/c1ccc(N2CCOCC2)cc1
85.4,133,> 50,1.56,> 50,Clc1ccc(-c2csc(N/N=C/c3ccc(N4CCOCC4)cc3)n2)c(Cl)c1
